What was measured:
[1] = Pharmacokinetics in Balb/C mouse after single IV dose; format: in vivo; details: 1.5 mg/kg; for AUC∞, norm / Cmax, norm / AUC(0-inf) / AUC(0-t) / C0 / Cmax: n = 3, plasma; for AUC∞, norm / Cmax, norm: dose-normalized; for clearance / half-life / Vd: plasma; for clearance / half-life: n = 3; for Vd: n = 3, read-out: VSS
Method: For in vivo evaluation of STING agonist compounds described herein in naïve Balb/C mouse, single doses of STING agonist compounds were given at 1.5 mg/kg intravenously into female BALB/c mice (Orientbio, South Korea) at 6-8 weeks of age. Pharmacokinetics were studied following injection of the STING agonist compounds into Balb/C mice. Plasma samples were taken at various time points and stored frozen for analysis. The plasma concentrations of the STING agonist compounds at the indicated time points were measured using a LC-MS/MS analysis method.
Briefly, 250 μL of acetonitrile (ACN) solution was added in both 50 µL of sample and 50 µL of plasma containing 10 nM Dextromethorphan (internal standard), and the solutions were mixed vigorously using a vortex mixer for 5 minutes. The samples were then spun down at 14,000 rpm, 4° C. for 5 minutes. 100 μL of supernatants were combined with 100 μL of mobile phase A (0.1% formic acid in water with 5% ACN) and mixed thoroughly. The samples were measured for the STING agonist compounds using a LC-MS/MS (Nexera LC40 (SHIMADZU) and QTRAP4500 (SCIEX)).

[2] = In vitro cell cytotoxicity in PBMCs (CellTiter-Glo); format: cell-based
Method: PBMCs were also purchased from […]™ (#700025.2). The cells (8.0×10^4 cells per well) were seeded in a flat-bottomed 96-well plate in RPMI 1640 medium (Gibco, #22400097) with 10% heat-inactivated FBS and 1×Antibiotic-Antimycotic (Gibco, #15240062) and rested for 24 hours at 37° C. […] After 72 hours, the cell viability was measured using CellTiter-Glo Luminescent Cell Viability Assay (Promega, #G7573) according to the manufacture's instruction. The signal was detected using an EnVision Xcite multilabel reader and data were analyzed using GraphPad Prism 8 software.
To verify the effect of the STING agonist compounds in normal cell cytotoxicity, the PBMCs were treated with the STING agonist compounds for 3 days and measured the percentage of cell death.

hSTING-H232 = target: T1, hSTING-H232 (Homo sapiens, UniProt Q86WV6); test: STING agonist activity, THP1 Dual reporter cells with STING H232 variant; format: cell-based; details: IRF luciferase, 24 hours
T1 construct: host or cells: THP1 Dual KI-hSTING (STING HAQ gene removed, H232 variant gene introduced)
Method: (§1) In order to evaluate the activity of the STING agonist, reporter cells from Invivogen were used. The cell lines used in the experiment were THP1 Dual™ (InvivoGen #thpd-nfis) expressing the endogenous STING variant HAQ and THP1 Dual™ KI-hSTING-R232 (InvivoGen #thpd-r232/h232) into which the STING R232 or H232 variant gene was injected after removing the STING HAQ gene. The cell lines have a luciferase reporter gene inserted below the IFN regulatory factor (IRF) promoter, and thus the activity of the IFN regulatory factor (IRF) mechanism can be evaluated through luciferase expression.
(§2) The reporter cells were plated at 9.0×10^4 cells/100 μL per well in a 96-well plate using RPMI 1640 medium (Gibco, #22400097) supplemented with 10% heat-inactivated FBS and 1×Antibiotic-Antimycotic (Gibco, #15240062), 10 μg/mL blasticidin (Gibco, #A1113902), and 100 μg/mL Zeocin (Gibco, #R25005). The plated cells were cultured at 37° C., 5% CO2 for 24 hours, and then treated with 100 μL of the serially diluted compound in each well, and then cultured at 37° C., 5% CO2 for 24 hours. After culturing, 20 μL of the cell culture medium was transferred to a 96 well white plate, and QUANTI-Luc™ (InvivoGen #rep-qlcl) was added at 50 µL/well. Using a microplate reader (Perkin Elmer), the value of the luminescence signal increased in the experimental group treated with the drug compared to the control group not treated with the drug was calculated. EC50 values were derived according to the concentration of the compound using GraphPad Prism.

hSTING-R232 = target: T2, hSTING-R232 (Homo sapiens, UniProt Q86WV6, H232R); test: STING agonist activity, THP1 Dual KI-hSTING-R232 IRF luciferase reporter cells; format: cell-based; details: 24 hours
T2 construct: host or cells: THP1 Dual KI-hSTING-R232 (STING HAQ gene removed, R232 variant gene introduced)
Method: as §1, §2

hSTING-HAQ = target: T3, hSTING-HAQ (Homo sapiens, UniProt Q86WV6, G230A/H232R/R293Q/R71H); test: STING agonist activity, THP1 Dual reporter cells expressing endogenous STING variant HAQ; format: cell-based; details: IRF luciferase, 24 hours
T3 construct: expressing the endogenous STING variant HAQ; host or cells: THP1 Dual
Method: as §1, §2

[3] = In vitro cell cytotoxicity in CD34+ HSC (CellTiter-Glo); format: cell-based; details: cd34+ hscs
Method: The CD34^+ hematopoietic stem cells (HSCs) were purchased from […]™ (#70002.3). The cells (2×10^4 cells per well) were cultured in StemSpan™ SFEM II medium supplemented with StemSpan™ CD34+ Expansion Supplement (#02691) in a 6-well plate at 37° C. for 7 days. On day 3 or 4, an equal volume of fresh complete medium was added into the cell culture. On day 7, the cells (4×10^4 cells per well) were seeded in a 96-well white plate and rested for 24 hours in the same condition.
After 72 hours, the cell viability was measured using CellTiter-Glo Luminescent Cell Viability Assay (Promega, #G7573) according to the manufacture's instruction. The signal was detected using an EnVision Xcite multilabel reader and data were analyzed using GraphPad Prism 8 software.

human STING = target: T4, human STING (Homo sapiens, UniProt Q86WV6); test: Direct binding potency, HUMAN STING WT BINDING KIT (Cisbio); details: in vitro
T4 construct: purchased Cisbio #64BDSTGPEG
Description: Additionally, or analysis of direct binding potency of STING agonist compounds described herein to human STING, HUMAN STING WT BINDING KIT (Cisbio, #64BDSTGPEG) was used according to the manufacturer's instruction.

T2 sequence (Q86WV6 whole entry H232R): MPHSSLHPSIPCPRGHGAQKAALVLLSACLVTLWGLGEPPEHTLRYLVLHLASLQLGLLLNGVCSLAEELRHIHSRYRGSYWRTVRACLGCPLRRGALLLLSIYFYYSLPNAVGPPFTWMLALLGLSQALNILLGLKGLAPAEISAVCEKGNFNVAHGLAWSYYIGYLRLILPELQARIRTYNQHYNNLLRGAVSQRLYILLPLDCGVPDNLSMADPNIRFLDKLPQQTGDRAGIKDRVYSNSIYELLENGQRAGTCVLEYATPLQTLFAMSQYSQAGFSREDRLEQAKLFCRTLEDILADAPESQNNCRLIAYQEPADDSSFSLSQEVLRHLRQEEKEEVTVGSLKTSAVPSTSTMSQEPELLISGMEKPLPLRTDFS
T3 sequence (Q86WV6 whole entry R71H/G230A/H232R/R293Q): as the sequence (Q86WV6 whole entry H232R) above, with R71H, G230A, R293Q counted along it
T4 sequence (Q86WV6 whole entry): as the sequence (Q86WV6 whole entry H232R) above, with R232H counted along it
T1 sequence (Q86WV6 whole entry): as the sequence (Q86WV6 whole entry H232R) above, with R232H counted along it

Row | SMILES | AUC∞, norm [1] [kg·h/L] | Cmax, norm [1] [kg/L] | CC50 at 72 h [2] [nM] | EC50 (hSTING-H232) [nM] | EC50 (hSTING-R232) [nM] | EC50 (hSTING-HAQ) [nM] | EC50 (human STING) [nM] | other results
1 | CCn1nc(C)cc1C(=O)Nc1nc2cc(C(N)=O)cc(OC)c2n1C/C=C/Cn1c(NC(=O)c2cc(C)nn2CC)nc2cc(C(N)=O)cc(OCCCN3CCOCC3)c21 [Comparative #1, reference compound] | 0.66 ± 0.07 | 1.94 ± 0.30 | 3.3 | – | – | – | – | –
2 | CCc1nc(C)oc1C(=O)Nc1nc2cc(C(N)=O)cnc2n1C/C=C/Cn1c(NC(=O)c2oc(C)nc2CC)nc2cc(C(N)=O)cc(OCCCO)c21 [Comparative #2, reference compound] | 0.05 ± 0.01 | 0.16 ± 0.02 | – | 9.5 | 3.39 | 89.4 | – | –
3 | CCn1nc(C)cc1C(=O)Nc1nc2cc(C(N)=O)cc(OC)c2n1C/C=C/Cn1c(NC(=O)c2cc(C)nn2CC)nc2cc(C(N)=O)cc(OC/C=C/CN3CCNCC3=O)c21 [Compound 28] | – | – | 12.7 | 9.5 | 3.37 | 15.5 | – | CC50 at 72 h [3]: 24.9 nM
4 | CCn1nc(C)cc1C(=O)Nc1nc2cc(C(N)=O)cc(OC)c2n1C/C=C/Cn1c(NC(=O)c2cc(C)nn2CC)nc2cc(C(N)=O)cc(OC/C=C/Cn3cc(N)cn3)c21 [Compound 55] | 3.44 ± 0.08 | 9.42 ± 0.39 | 4 | 5.5 | 0.5 | 6.3 | 0.22 | AUC(0-inf) [1]: 5160 ± 120 ng·h/mL; AUC(0-t) [1]: 5110 ± 120 ng·h/mL; C0 [1]: 21100 ± 2210 ng/mL; Cmax [1]: 14100 ± 590 ng/mL; clearance [1]: 4.83 mL/min/kg; half-life [1]: 72 ± 4.8 min; Vd [1]: 0.15 L/kg; CC50 at 72 h [3]: 7.9 nM
5 | CCn1nc(C)cc1C(=O)Nc1nc2cc(C(N)=O)cc(OC/C=C/Cn3cc(N)cn3)c2n1C/C=C/Cn1c(NC(=O)c2cc(C)nn2CC)nc2cc(C(N)=O)cc(OCCCC(=O)O)c21 [Compound 65] | 0.29 ± 0.03 | 0.64 ± 0.11 | 18.5 | 7 | 1.7 | 25.5 | 0.43 | AUC(0-inf) [1]: 440 ± 440 ng·h/mL; AUC(0-t) [1]: 430 ± 50 ng·h/mL; C0 [1]: 1300 ± 430 ng/mL; Cmax [1]: 960 ± 170 ng/mL; clearance [1]: 57.5 mL/min/kg; half-life [1]: 28.2 ± 4.8 min; Vd [1]: 1.58 ± 0.13 L/kg; CC50 at 72 h [3]: 3.9 nM
6 | CCn1nc(C)cc1C(=O)Nc1nc2cc(C(N)=O)cc(OC)c2n1C/C=C/Cn1c(NC(=O)c2cc(C)nn2CC)nc2cc(C(N)=O)cc(OC/C=C/CN3CCCN3)c21 [Compound 133] | 0.63 ± 0.07 | 1.76 ± 0.27 | – | – | 0.33 | – | 0.43 | AUC(0-inf) [1]: 950 ± 110 ng·h/mL; AUC(0-t) [1]: 920 ± 110 ng·h/mL; C0 [1]: 4500 ± 850 ng/mL; Cmax [1]: 2650 ± 400 ng/mL; clearance [1]: 26.5 mL/min/kg; half-life [1]: 96.6 ± 1.2 min; Vd [1]: 1.39 ± 0.21 L/kg
7 | CCc1nc(C)oc1C(=O)Nc1nc2cc(C(N)=O)cc(OC/C=C/Cn3cc(N)cn3)c2n1C/C=C/Cn1c(NC(=O)c2cc(C)nn2CC)nc2cc(C(N)=O)cc(OC)c21 [Compound 151] | – | – | – | – | 2.21 | – | 0.13 | –
8 | CCc1nc(C)sc1C(=O)Nc1nc2cc(C(N)=O)cc(OC/C=C/Cn3cc(N)cn3)c2n1C/C=C/Cn1c(NC(=O)c2cc(C)nn2CC)nc2cc(C(N)=O)cc(OC)c21 [Compound 155] | – | – | – | – | 2.6 | – | 0.4 | –
9 | CCn1nc(C)cc1C(=O)Nc1nc2cc(C(N)=O)cc(OC)c2n1C/C=C/Cn1c(NC(=O)c2cc(C)nn2CC)nc2cc(C(N)=O)cc(OCC#CCn3cc(N)cn3)c21 [Compound 178] | – | – | – | – | 0.7 | – | – | –
10 | CCn1nc(C)cc1C(=O)Nc1nc2cc(C(N)=O)cc(OC)c2n1C/C=C/Cn1c(NC(=O)c2cc(C)nn2CC)nc2cc(C(N)=O)cc(OCCCS(C)(=N)=O)c21 (stereo not drawn) [Compound 187] | – | – | – | – | 4.13 | – | – | –
11 | CCn1nc(C)cc1C(=O)Nc1nc2cc(C(N)=O)cc(OC/C=C/Cn3cc(N)cn3)c2n1C/C=C/Cn1c(NC(=O)c2cc(C)nn2CC)nc2cc(C(N)=O)cc(OCCCS(C)(=N)=O)c21 (stereo not drawn) [Compound 197] | – | – | – | – | 8.13 | – | – | –
12 | CCn1nc(C)cc1C(=O)Nc1nc2cc(C(N)=O)cc(OC)c2n1C/C=C/Cn1c(NC(=O)c2cc(C)nn2CC)nc2cc(C(N)=O)cc(OC/C=C/COC(=O)N(C)CCNC)c21 [Compound 221] | – | – | – | – | 3.48 | – | – | –
13 | CCc1nc(C)oc1C(=O)Nc1nc2cc(C(N)=O)cc(OC/C=C/Cn3cc(N)cn3)c2n1C/C=C/Cn1c(NC(=O)c2cc(C)nn2CC)nc2cc(C(N)=O)cc(OC)c21 [Compound 222] | – | – | – | – | 2.72 | – | – | –
